Measured values taken from patent US20230417736A1, “MONITORING MEMBRANE PROTEIN TRAFFICKING FOR DRUG DISCOVERY AND DRUG DEVELOPMENT” (UNIVERSITY OF HOUSTON SYSTEM, priority 2020, published 2023).

Biological target: T1, human β2AR (Homo sapiens, UniProt P07550)
T1 construct: expressed in transfected cells
Assay: GPCR internalization assay using NanoBiT technology (β2AR-SmBiT with LgBiT-FYVE, early endosomes)
Assay type: cell-based
Settings: for Internalization of GPCRs (luminescent signal) in the presence of endocytosis inhibitors: 10 μM of endocytosis inhibitors, cells pretreated, then ligand stimulation
Source text: Applicant initially focused on studying the different internalization rates of class A G-protein coupled receptors (GPCRs). For this, Applicant first established a set of GPCRs involved in a wide variety of physiological functions and diseases such as Galanin (GAL receptors), Chemokine receptors (CCR), and β-adrenergic receptors ((βAR). Applicant devised a strategy to monitor how the GPCR bound to its corresponding ligand is removed from the cell surface, subsequently localized in early endosomes, and then finally recycled into the cell membrane. To accomplish this, Applicant covalently linked a small fragment of NLuc (SmBiT) to the C-terminal of the receptor, where a flexible linker is located between the two proteins (FIGS. 9-10). This linker was designed to be composed mainly of glycine and alanine amino acids to provide flexibility and not to alter the pharmacological properties of the native receptor (FIGS. 2A-2B).
FYVE domains bind phosphatidylinositol 3-phosphate from early endosomes, in a manner that is dependent on its metal ion coordination and basic amino acids. This FYVE domain inserts into cell membranes in a pH-dependent manner, where it is composed of two small beta hairpins (or zinc knuckles) and followed by an alpha helix. Additionally, the FYVE finger binds two zinc ions where this FYVE finger has eight potential zinc coordinating cysteine positions and is characterized by having basic amino acids around the cysteines. To achieve this, the gene of the FYVE domain of the human Endofin (residues from Q739 to K806) was synthesized and covalently attached by molecular cloning into a large fragment of NLuc (LgBiT) at the N-termini (FIGS. 2A-2B).
The ability to monitor internalization in response to ligand stimulation was assessed in HEK293 cells expressing the corresponding human receptor. In the case of GPCRs, the assay was performed using the corresponding endogenous ligands (i.e., epinephrine).
HEK293 cells were maintained in Dulbecco's modified Eagle's medium (DMEM) supplemented with 10% fetal bovine serum (FBS), 100 U/ml penicillin G, and […] streptomycin (Invitrogen; Carlsbad, CA, USA). At 1 day before transfection, the cells were seeded in 96-well plates at a density of 2.5×10^4 cells per well. […] After a 10 minute incubation, 25 μl substrate (furimazine) was added, and once every minute subsequent luminescence measurements were taken for 5-10 minutes for signal stabilization. A total of 10 μl of ligand, antibody, or viral suspension was then added to each well and luminescence measurements were recorded immediately and once every minute for 1-3 hours (Synergy 2 Multi-Mode Microplate Reader BioTek, Winooski, VT, USA).

T1 sequence (P07550 whole entry): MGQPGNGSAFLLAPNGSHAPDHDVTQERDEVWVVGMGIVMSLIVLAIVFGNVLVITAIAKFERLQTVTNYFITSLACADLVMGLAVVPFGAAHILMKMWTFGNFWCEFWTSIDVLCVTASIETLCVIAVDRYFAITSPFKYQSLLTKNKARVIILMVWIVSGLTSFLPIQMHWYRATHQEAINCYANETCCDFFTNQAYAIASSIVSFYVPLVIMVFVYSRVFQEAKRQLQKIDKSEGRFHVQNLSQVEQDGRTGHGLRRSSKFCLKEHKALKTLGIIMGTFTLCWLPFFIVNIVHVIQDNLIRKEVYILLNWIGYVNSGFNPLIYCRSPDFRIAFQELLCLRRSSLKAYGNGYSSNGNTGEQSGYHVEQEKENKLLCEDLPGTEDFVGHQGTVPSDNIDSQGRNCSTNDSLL

Internalization of GPCRs (luminescent signal) in the presence of endocytosis inhibitors | SMILES | Blue luminescent signal (β2AR translocation into early endosomes) in response to the agonist (different concentrations of epinephrine)
inhibited | Cn1c(CNc2cccc(C(=O)NCc3ccccc3C(F)(F)F)c2)nnc1-c1ccncc1 [Cmpd101] | –
inhibited | O=C(N/N=C/c1ccc(O)c(O)c1)c1cc2ccccc2cc1O [Dynasore] | –
inhibited | O=C1N=C(NS(=O)(=O)c2cccc3ccccc23)SC1=Cc1ccc(Br)cc1 [PiTStop] | –
– | CNC[C@H](O)c1ccc(O)c(O)c1 [epinephrine] | increased the blue luminescent signal in a concentration-dependent manner
